Reference: publication PMC5218480 (PLoS ONE, 2017)

Test system: MV-4-11 cells
Experiment: Gene expression microarray analysis (Affymetrix PrimeView) and GSEA
Type: cell-based, human
Design: RFU PODN (11730768_x_at) / Fold change /veh PODN (11730768_x_at) / RFU LINC00158 (11744669_a_at) / Fold change /veh LINC00158 (11744669_a_at) / RFU DUSP10 (11751237_a_at) / Fold change /veh DUSP10 (11751237_a_at) / RFU ID3 (11757404_x_at) / Fold change /veh ID3 (11757404_x_at) / RFU PLEKHG5 (11737974_s_at) / Fold change /veh PLEKHG5 (11737974_s_at) / RFU LRRC4B (11730491_at) / Fold change /veh LRRC4B (11730491_at) / RFU GIMAP4 (11747438_a_at) / Fold change /veh GIMAP4 (11747438_a_at) / RFU KRT8 (11758183_x_at) / Fold change /veh KRT8 (11758183_x_at) / RFU CNN1 (11734310_a_at) / Fold change /veh CNN1 (11734310_a_at) / RFU VPS37D (11726825_at) / Fold change /veh VPS37D (11726825_at) / RFU C10orf10 (11716522_x_at) / Fold change /veh C10orf10 (11716522_x_at) / RFU KIR2DL2 /// KIR2DL4 /// KIR2DL5A /// KIR2DL5B /// KIR2DS1 /// KIR2DS2 /// KIR2DS3 /// KIR2DS4 /// KIR3DL3 /// KIR3DL3 /// KIR3DS1 (11738374_at) / Fold change /veh KIR2DL2 /// KIR2DL4 /// KIR2DL5A /// KIR2DL5B /// KIR2DS1 /// KIR2DS2 /// KIR2DS3 /// KIR2DS4 /// KIR3DL3 /// KIR3DL3 /// KIR3DS1 (11738374_at) / RFU C1QL1 (11718748_at) / Fold change /veh C1QL1 (11718748_at) / RFU TMPRSS4 (11747572_a_at) / Fold change /veh TMPRSS4 (11747572_a_at) / RFU HAMP (11756126_x_at) / Fold change /veh HAMP (11756126_x_at) / RFU RNFT2 (11725882_a_at) / Fold change /veh RNFT2 (11725882_a_at) / RFU NR4A2 (11747474_a_at) / Fold change /veh NR4A2 (11747474_a_at) / RFU ABCC12 (11746883_a_at) / Fold change /veh ABCC12 (11746883_a_at) / RFU TMEM136 (11760407_x_at) / Fold change /veh TMEM136 (11760407_x_at) / RFU CLDN22 /// WWC2 (11732394_at) / Fold change /veh CLDN22 /// WWC2 (11732394_at) / RFU HLA-DPB1 (11760878_x_at) / Fold change /veh HLA-DPB1 (11760878_x_at) / RFU SPINT1 (11716480_a_at) / Fold change /veh SPINT1 (11716480_a_at) / RFU GAP43 (11754022_s_at) / Fold change /veh GAP43 (11754022_s_at) / RFU A4GNT (11735810_at) / Fold change /veh A4GNT (11735810_at) / RFU PRB3 (11715151_x_at) / Fold change /veh PRB3 (11715151_x_at) / RFU TUBB4B (11761932_at) / Fold change /veh TUBB4B (11761932_at) / RFU CAPN14 (11732068_a_at) / Fold change /veh CAPN14 (11732068_a_at) / RFU TMCC2 (11721928_a_at) / Fold change /veh TMCC2 (11721928_a_at) / RFU IRGQ (11745062_a_at) / Fold change /veh IRGQ (11745062_a_at) / RFU FAM174B (11720279_a_at) / Fold change /veh FAM174B (11720279_a_at) / RFU TMPRSS4 (11748680_a_at) / Fold change /veh TMPRSS4 (11748680_a_at) / RFU FAM212B (11763350_a_at) / Fold change /veh FAM212B (11763350_a_at) / RFU PLEKHG5 (11743358_a_at) / Fold change /veh PLEKHG5 (11743358_a_at) / RFU ZSCAN30 (11745921_a_at) / Fold change /veh ZSCAN30 (11745921_a_at) / RFU CMKLR1 (11741424_a_at) / Fold change /veh CMKLR1 (11741424_a_at) / RFU LOC101060620 /// MAPK8IP1 (11723275_at) / Fold change /veh LOC101060620 /// MAPK8IP1 (11723275_at) / RFU SPTSSB (11747773_x_at) / Fold change /veh SPTSSB (11747773_x_at) / RFU PRSS12 (11739890_at) / Fold change /veh PRSS12 (11739890_at) / RFU BIN1 (11741810_x_at) / Fold change /veh BIN1 (11741810_x_at) / RFU WNT11 (11732464_a_at) / Fold change /veh WNT11 (11732464_a_at) / RFU C10orf10 (11716521_a_at) / Fold change /veh C10orf10 (11716521_a_at) / RFU C5orf56 (11738089_at) / Fold change /veh C5orf56 (11738089_at) / RFU CYB561 (11721691_x_at) / Fold change /veh CYB561 (11721691_x_at) / RFU ANKRD19P (11752326_a_at) / Fold change /veh ANKRD19P (11752326_a_at) / RFU OR2T12 /// OR2T33 /// OR2T8 (11738714_s_at) / Fold change /veh OR2T12 /// OR2T33 /// OR2T8 (11738714_s_at) / RFU VCAN (11748164_a_at) / Fold change /veh VCAN (11748164_a_at) / RFU JSRP1 (11732532_at) / Fold change /veh JSRP1 (11732532_at) / RFU KRTAP10-11 (11738290_x_at) / Fold change /veh KRTAP10-11 (11738290_x_at) / RFU MYO3A (11730013_a_at) / Fold change /veh MYO3A (11730013_a_at) / RFU EBF3 (11725865_a_at) / Fold change /veh EBF3 (11725865_a_at) / RFU CAMK2N1 (11719241_x_at) / Fold change /veh CAMK2N1 (11719241_x_at) / RFU C5orf56 (11738088_a_at) / Fold change /veh C5orf56 (11738088_a_at) / RFU OLFML3 (11715873_a_at) / Fold change /veh OLFML3 (11715873_a_at) / RFU LOC100653217 /// NTM (11731650_a_at) / Fold change /veh LOC100653217 /// NTM (11731650_a_at) / RFU MAPK11 (11762145_a_at) / Fold change /veh MAPK11 (11762145_a_at) / RFU FIZ1 (11724087_x_at) / Fold change /veh FIZ1 (11724087_x_at) / RFU OASL (11726364_x_at) / Fold change /veh OASL (11726364_x_at) / RFU SOX15 (11748057_x_at) / Fold change /veh SOX15 (11748057_x_at) / RFU CD79A (11719716_a_at) / Fold change /veh CD79A (11719716_a_at) / RFU HIST1H1D (11736915_at) / Fold change /veh HIST1H1D (11736915_at) / RFU CASKIN2 (11723855_a_at) / Fold change /veh CASKIN2 (11723855_a_at) / RFU LOC730098 (11760151_x_at) / Fold change /veh LOC730098 (11760151_x_at) / RFU OR4N2 (11742367_at) / Fold change /veh OR4N2 (11742367_at) / RFU PRRT2 (11749266_a_at) / Fold change /veh PRRT2 (11749266_a_at) / RFU SNX32 (11753110_a_at) / Fold change /veh SNX32 (11753110_a_at) / RFU CDHR5 (11726645_a_at) / Fold change /veh CDHR5 (11726645_a_at) / RFU RCAN1 (11760418_a_at) / Fold change /veh RCAN1 (11760418_a_at) / RFU FAM167A (11723789_a_at) / Fold change /veh FAM167A (11723789_a_at) / RFU FAM26E (11764081_at) / Fold change /veh FAM26E (11764081_at) / RFU ISYNA1 (11749810_s_at) / Fold change /veh ISYNA1 (11749810_s_at) / RFU ACY1 (11761880_at) / Fold change /veh ACY1 (11761880_at) / RFU 11764098_at / Fold change /veh 11764098_at / RFU SAMD14 (11745864_x_at) / Fold change /veh SAMD14 (11745864_x_at) / RFU NPB (11741838_a_at) / Fold change /veh NPB (11741838_a_at) / RFU TMPRSS6 (11731388_a_at) / Fold change /veh TMPRSS6 (11731388_a_at) / RFU KRTAP10-2 (11738614_at) / Fold change /veh KRTAP10-2 (11738614_at) / RFU ARHGAP8 /// PRR5-ARHGAP8 (11727945_x_at) / Fold change /veh ARHGAP8 /// PRR5-ARHGAP8 (11727945_x_at) / RFU KRTAP5-7 /// NADSYN1 (11734609_at) / Fold change /veh KRTAP5-7 /// NADSYN1 (11734609_at) / RFU RASL12 (11751679_a_at) / Fold change /veh RASL12 (11751679_a_at) / RFU CDKN2B (11736163_a_at) / Fold change /veh CDKN2B (11736163_a_at) / RFU PRF1 (11729649_at) / Fold change /veh PRF1 (11729649_at) / RFU, ZNF638 /// ZNF638-IT1 / Fold change vs veh, ZNF638 /// ZNF638-IT1 / RFU, PANK3 / Fold change vs veh, PANK3 / RFU, SH3YL1 / Fold change vs veh, SH3YL1 / RFU, ZEB2 / Fold change vs veh, ZEB2 / RFU, NRIP1 / Fold change vs veh, NRIP1 / RFU, PTTG1IP / Fold change vs veh, PTTG1IP / RFU, CAPN2 / Fold change vs veh, CAPN2 / RFU, MED14 / Fold change vs veh, MED14 / RFU, SNORA58 / Fold change vs veh, SNORA58 / RFU, C1orf63 / Fold change vs veh, C1orf63 / RFU, LRRFIP1 / Fold change vs veh, LRRFIP1 / RFU, NDUFAF7 / Fold change vs veh, NDUFAF7 / RFU, SLC12A2 / Fold change vs veh, SLC12A2 / RFU, IBTK / Fold change vs veh, IBTK / RFU, ESF1 / Fold change vs veh, ESF1 / Fold change vs veh, TMEM50B / RFU, TAOK1 / Fold change vs veh, TAOK1 / RFU, ACBD3 / Fold change vs veh, ACBD3 / RFU, TMA16 / Fold change vs veh, TMA16 / RFU, RWDD3 / Fold change vs veh, RWDD3 / RFU, BCAT1 / Fold change vs veh, BCAT1 / RFU, EDEM3 / Fold change vs veh, EDEM3 / RFU, TMEM33 / Fold change vs veh, TMEM33 / RFU, WDR75 / Fold change vs veh, WDR75 / RFU, AHCTF1 / Fold change vs veh, AHCTF1 / RFU, TFRC / Fold change vs veh, TFRC / RFU, ZDHHC17 / Fold change vs veh, ZDHHC17 / RFU, NOM1 / Fold change vs veh, NOM1 / RFU, ARL8B / Fold change vs veh, ARL8B / RFU, ZBTB11 / Fold change vs veh, ZBTB11 / RFU, TAMM41 / Fold change vs veh, TAMM41 / RFU, KIAA1704 /// LOC100996395 / Fold change vs veh, KIAA1704 /// LOC100996395 / RFU, ING1 / Fold change vs veh, ING1 / RFU, TRMT61B / Fold change vs veh, TRMT61B / RFU, FUBP3 / Fold change vs veh, FUBP3 / RFU, TP53 / Fold change vs veh, TP53 / RFU, TNKS2 / Fold change vs veh, TNKS2 / RFU, ZFP14 / Fold change vs veh, ZFP14 / RFU, ACTR2 / Fold change vs veh, ACTR2 / RFU, PPP3R1 / Fold change vs veh, PPP3R1 / RFU, PIK3R1 / Fold change vs veh, PIK3R1 / RFU, HNRNPA1 / Fold change vs veh, HNRNPA1 / RFU, RNF170 / Fold change vs veh, RNF170 / RFU, ZNF28 / Fold change vs veh, ZNF28 / RFU, RNGTT / Fold change vs veh, RNGTT / RFU, OGT / Fold change vs veh, OGT / RFU, BRD1 / Fold change vs veh, BRD1 / RFU, MARS / Fold change vs veh, MARS / RFU, ZNF655 / Fold change vs veh, ZNF655 / RFU, FAHD1 / Fold change vs veh, FAHD1 / RFU, BDP1 / Fold change vs veh, BDP1 / RFU, LRRCC1 / Fold change vs veh, LRRCC1 / RFU, ARID1A / Fold change vs veh, ARID1A / RFU, ZNF146 / Fold change vs veh, ZNF146 / RFU, ZNF330 / Fold change vs veh, ZNF330 / RFU, GPN3 / Fold change vs veh, GPN3 / RFU, C9orf123 / Fold change vs veh, C9orf123 / RFU, N4BP2L2 / Fold change vs veh, N4BP2L2 / RFU, ARFIP1 / Fold change vs veh, ARFIP1 / RFU, FAM179B / Fold change vs veh, FAM179B / RFU, BCL10 / Fold change vs veh, BCL10 / RFU, UHRF1BP1L / Fold change vs veh, UHRF1BP1L / RFU, BET1 / Fold change vs veh, BET1 / RFU, CNOT2 / Fold change vs veh, CNOT2 / RFU, ZNF268 / Fold change vs veh, ZNF268 / Fold change vs veh, ZNF507 / RFU, DGCR2 / Fold change vs veh, DGCR2 / RFU, WDSUB1 / Fold change vs veh, WDSUB1 / Fold change vs veh, HSP90B1 /// MIR3652 / RFU, ADSS / Fold change vs veh, ADSS / RFU, GK / Fold change vs veh, GK / RFU, ZNF148 / Fold change vs veh, ZNF148 / RFU, TAF9 / Fold change vs veh, TAF9 / RFU, SLC1A5 / Fold change vs veh, SLC1A5 / RFU, SLMO2 / Fold change vs veh, SLMO2 / RFU, ABCC4 / Fold change vs veh, ABCC4 / RFU, LOC101060439 /// RAP1B / Fold change vs veh, LOC101060439 /// RAP1B / RFU, RFX7 / Fold change vs veh, RFX7 / RFU, GTPBP10 / Fold change vs veh, GTPBP10 / RFU, CNEP1R1 / Fold change vs veh, CNEP1R1 / RFU, BIVM-ERCC5 /// ERCC5 / Fold change vs veh, BIVM-ERCC5 /// ERCC5 / RFU, ILF3 / Fold change vs veh, ILF3 / RFU 11762660_at / Fold change /veh 11762660_at / RFU VCAN (11757783_s_at) / Fold change /veh VCAN (11757783_s_at) / RFU DDX43 (11728927_at) / Fold change /veh DDX43 (11728927_at) / RFU KRT8 (11758188_x_at) / Fold change /veh KRT8 (11758188_x_at) / RFU NKD1 (11759106_at) / Fold change /veh NKD1 (11759106_at) / RFU SRD5A1 (11742802_a_at) / Fold change /veh SRD5A1 (11742802_a_at) / RFU TPSAB1 /// TPSB2 (11721975_s_at) / Fold change /veh TPSAB1 /// TPSB2 (11721975_s_at) / RFU GSTM3 (11746129_a_at) / Fold change /veh GSTM3 (11746129_a_at) / RFU IL23R (11737362_x_at) / Fold change /veh IL23R (11737362_x_at) / RFU TMEM51 (11727254_a_at) / Fold change /veh TMEM51 (11727254_a_at) / RFU PIWIL2 (11732686_x_at) / Fold change /veh PIWIL2 (11732686_x_at) / RFU ORM1 (11744905_x_at) / Fold change /veh ORM1 (11744905_x_at) / RFU CCDC152 (11743942_at) / Fold change /veh CCDC152 (11743942_at) / RFU ECM1 (11717891_a_at) / Fold change /veh ECM1 (11717891_a_at) / RFU IL23R (11748794_a_at) / Fold change /veh IL23R (11748794_a_at) / RFU TNFAIP8L3 (11732012_x_at) / Fold change /veh TNFAIP8L3 (11732012_x_at) / RFU MBOAT4 (11741988_at) / Fold change /veh MBOAT4 (11741988_at) / RFU 11764193_at / Fold change /veh 11764193_at / RFU TMEM53 (11763286_at) / Fold change /veh TMEM53 (11763286_at) / RFU MAGEB2 (11727129_at) / Fold change /veh MAGEB2 (11727129_at) / RFU TMEM200A (11744735_a_at) / Fold change /veh TMEM200A (11744735_a_at) / RFU CCDC152 (11751479_a_at) / Fold change /veh CCDC152 (11751479_a_at) / RFU FAM211A (11726209_a_at) / Fold change /veh FAM211A (11726209_a_at) / RFU RGS16 (11746705_a_at) / Fold change /veh RGS16 (11746705_a_at) / RFU VCAN (11755009_s_at) / Fold change /veh VCAN (11755009_s_at) / RFU RHOB (11743442_s_at) / Fold change /veh RHOB (11743442_s_at) / RFU RGS16 (11720943_a_at) / Fold change /veh RGS16 (11720943_a_at) / RFU RGS16 (11720944_at) / Fold change /veh RGS16 (11720944_at) / RFU, VPS4B / Fold change vs veh, VPS4B / RFU, CREB1 / Fold change vs veh, CREB1 / RFU, DNAJC13 / Fold change vs veh, DNAJC13 / RFU, GNAQ / Fold change vs veh, GNAQ / RFU, CDK5R1 / Fold change vs veh, CDK5R1 / RFU, ZRANB3 / Fold change vs veh, ZRANB3 / RFU, CUL4A / Fold change vs veh, CUL4A / RFU, CCNY / Fold change vs veh, CCNY / RFU, UFL1 / Fold change vs veh, UFL1 / RFU, COG3 / Fold change vs veh, COG3 / RFU, DIAPH2 / Fold change vs veh, DIAPH2 / RFU, SKA2 / Fold change vs veh, SKA2 / RFU, AFF3 / Fold change vs veh, AFF3 / RFU, LMF1 / Fold change vs veh, LMF1 / RFU, IPO11 / Fold change vs veh, IPO11 / RFU, DFFB / Fold change vs veh, DFFB / RFU, FOXP1 / Fold change vs veh, FOXP1 / RFU, CARD8 / Fold change vs veh, CARD8 / RFU, STRN3 / Fold change vs veh, STRN3 / RFU, ADK / Fold change vs veh, ADK / RFU, RASSF2 / Fold change vs veh, RASSF2 / RFU, WIPF1 / Fold change vs veh, WIPF1 / RFU, LARP1B / Fold change vs veh, LARP1B / RFU, RASA1 / Fold change vs veh, RASA1 / RFU, RB1 / Fold change vs veh, RB1 / RFU, PPFIA1 / Fold change vs veh, PPFIA1 / RFU, MAT2A / Fold change vs veh, MAT2A / RFU, CCT5 / Fold change vs veh, CCT5 / RFU, WDR92 / Fold change vs veh, WDR92 / RFU, CUX1 / Fold change vs veh, CUX1 / RFU, TTC7A / Fold change vs veh, TTC7A / RFU, TMEM135 / Fold change vs veh, TMEM135 / RFU, DEPTOR / Fold change vs veh, DEPTOR / RFU, CPM / Fold change vs veh, CPM / RFU, DNAJB6 / Fold change vs veh, DNAJB6 / RFU, CACNA2D3 / Fold change vs veh, CACNA2D3 / RFU, DTX4 / Fold change vs veh, DTX4 / RFU, TFCP2 / Fold change vs veh, TFCP2 / RFU, GMCL1 /// GMCL1P1 / Fold change vs veh, GMCL1 /// GMCL1P1 / RFU, AEBP2 / Fold change vs veh, AEBP2 / RFU, SNHG1 /// SNORD22 /// SNORD25 /// SNORD26 /// SNORD27 /// SNORD28 /// SNORD29 /// SNORD31 / Fold change vs veh, SNHG1 /// SNORD22 /// SNORD25 /// SNORD26 /// SNORD27 /// SNORD28 /// SNORD29 /// SNORD31 / Fold change (Aza/veh), C12orf56 (ProbeSet 11735607_a_at) / Fold change (ACY-1035/veh), C12orf56 (ProbeSet 11735607_a_at) / Fold change (Aza/veh), FGFR1OP (ProbeSet 11751329_s_at) / Fold change (ACY-1035/veh), FGFR1OP (ProbeSet 11751329_s_at) / Fold change (Aza/veh), VPS36 (ProbeSet 11739960_a_at) / Fold change (ACY-1035/veh), VPS36 (ProbeSet 11739960_a_at) / RFU SYPL1 (11715823_x_at) / Fold change /veh SYPL1 (11715823_x_at) / RFU IGFBP7 (11715501_s_at) / Fold change /veh IGFBP7 (11715501_s_at) / RFU REEP3 (11722064_at) / Fold change /veh REEP3 (11722064_at) / RFU IGLL1 (11728026_x_at) / Fold change /veh IGLL1 (11728026_x_at): dose or concentration left out as unconfirmed
Details: MV-4-11 cells, 48 hours

For `Nc1ccc(-c2cccs2)cc1NC(=O)c1ccc2c(c1)cc(C1CC1)n2CCN1CCOCC1` [ACY-1035], the “Fold change /veh TMEM136 (11760407_x_at)” value was 1.12.
